From patent US20080200460A1, “Chemical Compounds” (priority 2004, published 2008) come the findings set out here.

By IC50 is commonly meant the concentration that inhibits the measured activity by half.

recombinant human CCR5 receptor, sequence (P51681 whole entry): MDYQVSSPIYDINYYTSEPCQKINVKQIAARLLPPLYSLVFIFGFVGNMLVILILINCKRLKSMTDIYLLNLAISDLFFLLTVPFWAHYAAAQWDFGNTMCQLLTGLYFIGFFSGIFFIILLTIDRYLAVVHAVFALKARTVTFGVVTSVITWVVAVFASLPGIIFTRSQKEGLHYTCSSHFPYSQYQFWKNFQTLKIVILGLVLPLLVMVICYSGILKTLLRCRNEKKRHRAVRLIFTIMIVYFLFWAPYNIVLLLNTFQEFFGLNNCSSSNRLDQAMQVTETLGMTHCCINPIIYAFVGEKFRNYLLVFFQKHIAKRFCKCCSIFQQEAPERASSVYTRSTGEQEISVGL

This assay addresses recombinant human CCR5 receptor (Homo sapiens, UniProt P51681). Kind of assay: in vitro radioligand binding assay: inhibition of binding of iodinated MIP-1α (scintillation proximity). The note with it: displacement of iodinated MIP-1α from membranes of Chinese hamster ovary cells expressing recombinant human CCR5; negative log10 of IC50; average if tested more than once. As for the experimental part:
The ability of compounds to inhibit the binding of MIP-1α was assessed by an in vitro radioligand binding assay. Membranes were prepared from Chinese hamster ovary cells which expressed the recombinant human CCR5 receptor. These membranes were incubated with […] iodinated MIP-1α, scintillation proximity beads and various concentrations of the compounds of the invention in 96-well plates. The amount of iodinated MIP-1α bound to the receptor was determined by scintillation counting. Competition curves were obtained for compounds and the concentration of compound which displaced 50% of bound iodinated MIP-1α was calculated (IC50).
Results from this test for certain compounds of the invention are presented in Table V. In Table V the results are presented as Pic50 values. A Pic50 value is the negative log (to base 10) of the IC50 result, so an IC50 of 1 μM (that is 1×10^−6M) gives a Pic50 of 6. If a compound was tested more than once then the data below is an average of the probative tests results.
Regarding `CCN(C(=O)CC1CCN(S(C)(=O)=O)CC1)C1CCN(CC[C@H](c2ccc(S(C)(=O)=O)cc2)c2cc(F)cc(F)c2)CC1` [Compound 1 Table III, N-(1-{(3R)-3-(3,5-difluorophenyl)-3-[4-(methylsulphonyl)phenyl]propyl}piperidin-4-yl)-N-ethyl-2-[1-(methylsulphonyl)piperidin-4-yl]acetamide], the IC50 was 0.794 nM.

For the molecule `CCN(C(=O)NCC1CCN(S(C)(=O)=O)CC1)C1CCN(CC[C@H](c2ccc(S(C)(=O)=O)cc2)c2cc(F)cc(F)c2)CC1` [Compound 1 Table IV], the IC50 was 0.316 nM.

As for `CCN(C(=O)CC1CCOCC1)C1CCN(CC[C@H](c2ccc(S(C)(=O)=O)cc2)c2cc(F)cc(F)c2)CC1` [Compound 2 Table III, N-(1-{(3R)-3-(3,5-difluorophenyl)-3-[4-(methylsulphonyl)phenyl]propyl}piperidin-4-yl)-N-ethyl-2-(tetrahydro-2H-pyran-4-yl)acetamide], the IC50 was 15.8 nM.

With `CCN(C(=O)CN1CCN(S(C)(=O)=O)CC1)C1CCN(CC[C@@H](c2cc(F)cc(F)c2)C2CCN(S(C)(=O)=O)CC2)CC1` [Compound 5 Table I, N-(1-{(3R)-3-(3,5-difluorophenyl)-3-[1-(methylsulfonyl)piperidin-4-yl]propyl}piperidin-4-yl)-N-ethyl-2-[4-(methylsulfonyl)piperazin-1-yl]acetamide], the concentration for half-maximal inhibition (IC50) is 3.16 nM.

In the case of `C=CCN(C(=O)CC1CCN(S(C)(=O)=O)CC1)C1CCN(CC[C@@H](c2cc(F)cc(F)c2)C2CCN(S(C)(=O)=O)CC2)CC1` [Compound 7 Table I, N-allyl-N-(1-{(3R)-3-(3,5-difluorophenyl)-3-[1-(methylsulfonyl)piperidin-4-yl]propyl}piperidin-4-yl)-2-[1-(methylsulfonyl)piperidin-4-yl]acetamide], the IC50 is 0.316 nM.
